Test results as given in US10844032B2, “Substituted benzofuran, benzothiophene and indole Mcl-1 inhibitors” (Vanderbilt University, priority 2012, dated 2020).
pKi: −log10 of the molar value.

What follows are molecules tested against recombinant Mcl-1 (residues 172-327) (Homo sapiens (Human), UniProt Q07820) (assay: Bak peptide fluorescence polarization anisotropy competition assay, Mcl-1). Conditions: Table 2, Ki range; FITC-Bak peptide 10 nM, Mcl-1 14 nM; read-out: Ki for inhibition of Mcl-1.
recombinant Mcl-1 (residues 172-327), sequence (Q07820 172-327): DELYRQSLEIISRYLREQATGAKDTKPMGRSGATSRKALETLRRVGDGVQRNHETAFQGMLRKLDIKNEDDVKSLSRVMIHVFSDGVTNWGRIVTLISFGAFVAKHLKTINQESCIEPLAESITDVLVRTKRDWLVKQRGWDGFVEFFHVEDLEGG
Assay type: binding
For `Cc1cc(OCCCc2c(C(=O)NS(=O)(=O)c3ccc(CO)o3)[nH]c3cc(Cl)ccc23)cc(C)c1Cl` [Example 260, -chloro-3-(3-(4-chloro-3,5-dimethylphenoxy)propyl)-N-((5-(hydroxymethyl)furan-2-yl)sulfonyl)-1H-indole-2-carboxamide], the pKi was ≥ 7.00.
For `Cc1cc(OCCCc2c(C(=O)NS(=O)(=O)c3ccccc3)[nH]c3c(-c4c(COCCN(C)C)nn(C)c4C)cccc23)cc(C)c1Cl` [Example 308, 3-(3-(4-chloro-3,5-dimethylphenoxy)propyl)-7-(3-((2-(dimethylamino)ethoxy)methyl)-1,5-dimethyl-1H-pyrazol-4-yl)-N-(phenylsulfonyl)-1H-indole-2-carboxamide], the pKi was ≥ 7.00.
`Cc1cc2nccn2cc1-c1cccc2c(CCCOc3cc(C)c(Cl)c(C)c3)c(C(=O)NS(=O)(=O)c3ccccc3)[nH]c12` [Example 299, 3-(3-(4-chloro-3,5-dimethylphenoxy)propyl)-7-(7-methylimidazo[1,2-a]pyridin-6-yl)-N-(phenylsulfonyl)-1H-indole-2-carboxamide] was tested, and the pKi was ≥ 7.00.
For `Cc1cc(OCCCc2c(C(=O)NS(=O)(=O)c3ccccc3)[nH]c3c(-c4c(C)n[nH]c4C)cccc23)cc(C)c1Cl` [Example 305, 3-(3-(4-chloro-3,5-dimethylphenoxy)propyl)-7-(3,5-dimethyl-1H-pyrazol-4-yl)-N-(phenylsulfonyl)-1H-indole-2-carboxamide], the pKi was ≥ 7.00.
With `Cc1cc(OCCCc2c(C(=O)NS(=O)(=O)CCNC(=O)[C@@H]3Cc4ccccc4N3)[nH]c3cc(Cl)ccc23)cc(C)c1Cl` [Example 237, (S)-6-chloro-3-(3-(4-chloro-3,5-dimethylphenoxy)propyl)-N-((2-(indoline-2-carboxamido)ethyl)sulfonyl)-1H-indole-2-carboxamide] the pKi was ≥ 7.00.

Same assay, conditions: read-out: Ki for inhibition of Mcl-1
With `Cc1cc(OCCCc2c(C(=O)NS(=O)(=O)CCNC(=O)CC34CC5CC(CC(C5)C3)C4)[nH]c3ccccc23)cc(C)c1Cl` [Example 179, N-((2-(2-((1s,3s)-adamantan-1-yl)acetamido)ethyl)sulfonyl)-3-(3-(4-chloro-3,5-dimethylphenoxy)propyl)-1H-indole-2-carboxamide] the pKi was 6.52 to 7.00.
`Cc1cc(OCCCc2c(C(=O)NS(=O)(=O)CCNC(=O)c3ccc4c(ccn4C)c3)[nH]c3cc(Cl)ccc23)cc(C)c1Cl` [Example 236, 6-chloro-3-(3-(4-chloro-3,5-dimethylphenoxy)propyl)-N-((2-(1-methyl-1H-indole-5-carboxamido)ethyl)sulfonyl)-1H-indole-2-carboxamide] was tested, and the pKi was 6.52 to 7.00.
Molecule `Cc1cc(OCCCc2c(C(=O)NS(=O)(=O)c3ccccc3)[nH]c3c(-c4ccco4)cccc23)cc(C)c1Cl` [Example 86, 3-(3-(4-chloro-3,5-dimethylphenoxy)propyl)-7-(furan-2-yl)-N-(phenylsulfonyl)-1H-indole-2-carboxamide] has a pKi of 6.52 to 7.00.
`Cc1cc(OCCCc2c(C(=O)NS(=O)(=O)CCNC(=O)c3ccccc3)[nH]c3ccccc23)cc(C)c1Cl` [Example 161, N-((2-benzamidoethyl)sulfonyl)-3-(3-(4-chloro-3,5-dimethylphenoxy)propyl)-1H-indole-2-carboxamide] gave a pKi of 6.30 to 6.52.
Molecule `Cc1cc(OCCCc2c(C(=O)NS(=O)(=O)c3ccc(Oc4ccccc4)cc3)[nH]c3cc(Cl)ccc23)cc(C)c1Cl` [Example 222, 6-chloro-3-(3-(4-chloro-3,5-dimethylphenoxy)propyl)-N-((4-phenoxyphenyl)sulfonyl)-1H-indole-2-carboxamide] has a pKi of 6.52 to 7.00.
With `Cc1ccc2c(CCCOc3cccc4ccccc34)c(C(=O)O)sc2c1` [Example 9, 6-methyl-3-(3-(naphthalen-1-yloxy)propyl)benzo[b]thiophene-2-carboxylic acid] the pKi was 6.00 to 6.30.
For `Cc1cc(OCCCc2c(C(=O)NS(=O)(=O)c3ccc(-c4ccccc4)cc3)[nH]c3cc(Cl)ccc23)cc(C)c1Cl` [Example 219, N-([1,1′-biphenyl]-4-ylsulfonyl)-6-chloro-3-(3-(4-chloro-3,5-dimethylphenoxy)propyl)-1H-indole-2-carboxamide], the pKi was 6.30 to 6.52.
Molecule `COc1cccc(OCCCc2c(C(=O)NS(C)(=O)=O)[nH]c3cc(Cl)ccc23)c1` [Example 108, 6-chloro-3-(3-(3-methoxyphenoxy)propyl)-N-(methylsulfonyl)-1H-indole-2-carboxamide] has a pKi of 5.00 to 6.00.
`Cc1cc(OCCCc2c(C(=O)NS(=O)(=O)C3CC3)sc3ccccc23)cc(C)c1Cl` [Example 69, 3-(3-(4-chloro-3,5-dimethylphenoxy)propyl)-N-(cyclopropylsulfonyl)benzo[b]thiophene-2-carboxamide] gave a pKi of 5.00 to 6.00.
`Cc1ccc2c(CCCOc3cccc4ccccc34)c(C(=O)NS(C)(=O)=O)[nH]c2c1` [Example 118, 6-Methyl-N-(methylsulfonyl)-3-(3-(naphthalen-1-yloxy)propyl)-1H-indole-2-carboxamide] gave a pKi of 5.00 to 6.00.
Work on `COC(=O)c1ccc(S(=O)(=O)NC(=O)c2[nH]c3cc(Cl)ccc3c2CCCOc2cc(C)c(Cl)c(C)c2)n1C` [Example 265, methyl 5-(N-(6-chloro-3-(3-(4-chloro-3,5-dimethylphenoxy)propyl)-1H-indole-2-carbonyl)sulfamoyl)-1-methyl-1H-pyrrole-2-carboxylate] yielded a pKi of 6.52 to 7.00.
With `Cc1cc(OCCCc2c(C(=O)NS(=O)(=O)c3ccccc3)[nH]c3c(-c4ccoc4)cccc23)cc(C)c1Cl` [Example 87, 3-(3-(4-chloro-3,5-dimethylphenoxy)propyl)-7-(furan-3-yl)-N-(phenylsulfonyl)-1H-indole-2-carboxamide] the pKi was 6.52 to 7.00.
`Cc1cc(OCCCc2c(C(=O)NS(C)(=O)=O)[nH]c3ccc(Cl)cc23)cc(C)c1Cl` [Example 110, 5-chloro-3-(3-(4-chloro-3,5-dimethylphenoxy)propyl)-N-(methylsulfonyl)-1H-indole-2-carboxamide] showed a pKi of 6.00 to 6.30.
Molecule `Cc1ccccc1-c1ccc2c(CCCOc3cccc4ccccc34)c(C(=O)O)sc2c1` [Example 12, 3-(3-(naphthalen-1-yloxy)propyl)-6-(o-tolyl)benzo[b]thiophene-2-carboxylic acid] has a pKi of 5.00 to 6.00.
`Cc1cc(OCCCc2c(C(=O)NS(=O)(=O)CCNC(=O)c3cc(Br)no3)[nH]c3ccccc23)cc(C)c1Cl` [Example 185, 3-bromo-N-(2-(N-(3-(3-(4-chloro-3,5-dimethylphenoxy)propyl)-1H-indole-2-carbonyl)sulfamoyl)ethyl)isoxazole-5-carboxamide] was tested, and the pKi was 6.00 to 6.30.
`O=C(O)c1oc2ccccc2c1CCCc1cccc2ccccc12` [Example 22, 3-(3-(naphthalen-1-yl)propyl)benzofuran-2-carboxylic acid] gave a pKi of 4.30 to 5.00.
For `Cc1cc(OCCCc2c(C(=O)NS(C)(=O)=O)[nH]c3cc(C(F)(F)F)ccc23)cc(C)c1Cl` [Example 78, 3-(3-(4-chloro-3,5-dimethylphenoxy)propyl)-N-(methylsulfonyl)-6-(trifluoromethyl)-1H-indole-2-carboxamide], the pKi was 6.30 to 6.52.
Molecule `Cc1cc(OCCCc2c(C(=O)NS(=O)(=O)C3CCN(C(=O)c4cc(-c5ccccc5O)n[nH]4)CC3)[nH]c3cc(Cl)ccc23)cc(C)c1Cl` [Example 214] has a pKi of 6.30 to 6.52.
For `COc1cccc(Cn2cccc2C(=O)NCCS(=O)(=O)NC(=O)c2[nH]c3cc(Cl)ccc3c2CCCOc2cc(C)c(Cl)c(C)c2)c1` [Example 247, 6-chloro-3-(3-(4-chloro-3,5-dimethylphenoxy)propyl)-N-((2-(1-(3-methoxybenzyl)-1H-pyrrole-2-carboxamido)ethyl)sulfonyl)-1H-indole-2-carboxamide], the pKi was 6.52 to 7.00.
`Cc1cc(OCCCc2c(C(=O)NS(=O)(=O)CCNC(=O)c3ccoc3C)[nH]c3ccccc23)cc(C)c1Cl` [Example 151, 3-(3-(4-chloro-3,5-dimethylphenoxy)propyl)-N-((2-(2-methylfuran-3-carboxamido)ethyl)sulfonyl)-1H-indole-2-carboxamide] showed a pKi of 6.52 to 7.00.
`Cc1cc(OCCCc2c(C(=O)NS(=O)(=O)c3ccc(-c4ccccc4)cc3)[nH]c3ccccc23)cc(C)c1Cl` [Example 139, N-([1,1′-biphenyl]-4-ylsulfonyl)-3-(3-(4-chloro-3,5-dimethylphenoxy)propyl)-1H-indole-2-carboxamide] was tested, and the pKi was 6.30 to 6.52.
Molecule `COCc1nn(C)c(C)c1-c1cccc2c(CCCOc3cc(C)c(Cl)c(C)c3)c(C(=O)NS(=O)(=O)c3ccccc3)n(C)c12` [Example 129, 3-(3-(4-chloro-3,5-dimethylphenoxy)propyl)-7-(3-(methoxymethyl)-1,5-dimethyl-1H-pyrazol-4-yl)-1-methyl-N-(phenylsulfonyl)-1H-indole-2-carboxamide] has a pKi of 6.52 to 7.00.
`Cc1cc(OCCCc2c(C(=O)NS(=O)(=O)CCNC(=O)c3ccc(Oc4ccccc4)cc3)[nH]c3ccccc23)cc(C)c1Cl` [Example 166, 3-(3-(4-chloro-3,5-dimethylphenoxy)propyl)-N-((2-(4-phenoxybenzamido)ethyl)sulfonyl)-1H-indole-2-carboxamide] showed a pKi of 6.30 to 6.52.
For `CCc1ccc(CC(=O)NCCS(=O)(=O)NC(=O)c2[nH]c3ccccc3c2CCCOc2cc(C)c(Cl)c(C)c2)cc1` [Example 174, 3-(3-(4-chloro-3,5-dimethylphenoxy)propyl)-N-((2-(2-(4-ethylphenyl)acetamido)ethyl)sulfonyl)-1H-indole-2-carboxamide], the pKi was 6.52 to 7.00.
Molecule `Cc1cc(OCCCc2c(C(=O)NS(=O)(=O)CCNC(=O)NC3CCCCC3)[nH]c3ccccc23)cc(C)c1Cl` [Example 199, 3-(3-(4-chloro-3,5-dimethylphenoxy)propyl)-N-((2-(3-cyclohexylureido)ethyl)sulfonyl)-1H-indole-2-carboxamide] has a pKi of 6.30 to 6.52.
Molecule `Cc1cc(OCCCc2c(C(=O)NS(=O)(=O)CCNC(=O)Cc3c[nH]c4ccccc34)[nH]c3ccccc23)cc(C)c1Cl` [Example 177, N-((2-(2-(1H-indol-3-yl)acetamido)ethyl)sulfonyl)-3-(3-(4-chloro-3,5-dimethylphenoxy)propyl)-1H-indole-2-carboxamide] has a pKi of 6.52 to 7.00.
`O=C(NS(=O)(=O)c1ccc2ccccc2c1)c1oc2ccccc2c1CCCOc1cccc2ccccc12` [Example 25, 3-(3-(naphthalen-1-yloxy)propyl)-N-(naphthalen-2-ylsulfonyl)benzofuran-2-carboxamide] gave a pKi of 5.00 to 6.00.
